From ChEMBL document CHEMBL3885881, “DrugMatrix”

Species: Rattus norvegicus
Assay: DrugMatrix - Regimen: Daily Repeat
Type: toxicity, organism-based, Sprague-Dawley
Parameters: regimen Daily Repeat, gender Male, age 6-8 weeks
Conditions: in vivo, po, route oral GAVAGE, vehicle .5 % CMC; for BASOPHIL / EOSINOPHIL / ERYTHROCYTE COUNT / HEMATOCRIT / HEMOGLOBIN / LEUKOCYTE COUNT / LYMPHOCYTE / MEAN CORPUSCULAR HEMOGLOBIN / MEAN CORPUSCULAR HEMOGLOBIN CONCENTRATION / MEAN CORPUSCULAR VOLUME / MONOCYTE / NEUTROPHIL / PLATELET COUNT: tissue Blood; for ALANINE AMINOTRANSFERASE / ALBUMIN / ALKALINE PHOSPHATASE / ASPARTATE AMINOTRANSFERASE / BLOOD UREA NITROGEN / CHLORIDE / CHOLESTEROL / CREATINE PHOSPHOKINASE / CREATININE / GLUCOSE / PHOSPHORUS / POTASSIUM / SODIUM / TOTAL PROTEIN: tissue Plasma
[1] = 0 mg/kg, 72 h, dose level Control, time 3 day
[2] = 0 mg/kg, 120 h, dose level Control, time 5 day
[3] = 1 mg/kg, 72 h, dose level Low, time 3 day
[4] = 1 mg/kg, 120 h, dose level Low, time 5 day
[5] = 14 mg/kg, 72 h, dose level High, time 3 day
[6] = 14 mg/kg, 120 h, dose level High, time 5 day

SMILES: CN1C(C(=O)Nc2ccccn2)=C(O)c2ccccc2S1(=O)=O [PIROXICAM]
- BASOPHIL [1]: 0%
- EOSINOPHIL [1]: 0.33%
- ERYTHROCYTE COUNT [1]: 6.03 x10E6/uL
- HEMATOCRIT [1]: 38.8%
- HEMOGLOBIN [1]: 14.26 G/DL
- LEUKOCYTE COUNT [1]: 10.64 x10E3/uL
- LYMPHOCYTE [1]: 83.33%
- MEAN CORPUSCULAR HEMOGLOBIN [1]: 23.64 pg
- MEAN CORPUSCULAR HEMOGLOBIN CONCENTRATION [1]: 36.74 G/DL
- MEAN CORPUSCULAR VOLUME [1]: 64.32 fL
- MONOCYTE [1]: 3.33%
- NEUTROPHIL [1]: 13%
- PLATELET COUNT [1]: 1264.4 x10E3/uL
- ALANINE AMINOTRANSFERASE [1]: 38.83 u/L
- ALBUMIN [1]: 3.55 G/DL
- ALKALINE PHOSPHATASE [1]: 368.33 u/L
- ASPARTATE AMINOTRANSFERASE [1]: 66.17 u/L
- BLOOD UREA NITROGEN [1]: 15.67 mg/dL
- CHLORIDE [1]: 104.33 MEQ/L
- CHOLESTEROL [1]: 76.5 mg/dL
- CREATINE PHOSPHOKINASE [1]: 166.83 u/L
- CREATININE [1]: 0.52 mg/dL
- GLUCOSE [1]: 173.17 mg/dL
- PHOSPHORUS [1]: 11.68 mg/dL
- POTASSIUM [1]: 6.43 MEQ/L
- SODIUM [1]: 149.5 MEQ/L
- TOTAL PROTEIN [1]: 5.93 G/DL
- BASOPHIL [2]: 0%
- EOSINOPHIL [2]: 0%
- ERYTHROCYTE COUNT [2]: 5.88 x10E6/uL
- HEMATOCRIT [2]: 37.87%
- HEMOGLOBIN [2]: 14.48 G/DL
- LEUKOCYTE COUNT [2]: 12.43 x10E3/uL
- LYMPHOCYTE [2]: 84.17%
- MEAN CORPUSCULAR HEMOGLOBIN [2]: 24.65 pg
- MEAN CORPUSCULAR HEMOGLOBIN CONCENTRATION [2]: 38.25 G/DL
- MEAN CORPUSCULAR VOLUME [2]: 64.47 fL
- MONOCYTE [2]: 4.33%
- NEUTROPHIL [2]: 11.5%
- PLATELET COUNT [2]: 1182.33 x10E3/uL
- ALANINE AMINOTRANSFERASE [2]: 38.67 u/L
- ALBUMIN [2]: 3.55 G/DL
- ALKALINE PHOSPHATASE [2]: 342.5 u/L
- ASPARTATE AMINOTRANSFERASE [2]: 63.33 u/L
- BLOOD UREA NITROGEN [2]: 15.5 mg/dL
- CHLORIDE [2]: 104 MEQ/L
- CHOLESTEROL [2]: 75.5 mg/dL
- CREATINE PHOSPHOKINASE [2]: 142.5 u/L
- CREATININE [2]: 0.62 mg/dL
- GLUCOSE [2]: 165.17 mg/dL
- PHOSPHORUS [2]: 10.87 mg/dL
- POTASSIUM [2]: 6.85 MEQ/L
- SODIUM [2]: 150.17 MEQ/L
- TOTAL PROTEIN [2]: 5.93 G/DL
- BASOPHIL [3]: 0%
- EOSINOPHIL [3]: 0%
- ERYTHROCYTE COUNT [3]: 6.55 x10E6/uL
- HEMATOCRIT [3]: 42.8%
- HEMOGLOBIN [3]: 15.95 G/DL
- LEUKOCYTE COUNT [3]: 11.1 x10E3/uL
- LYMPHOCYTE [3]: 85.5%
- MEAN CORPUSCULAR HEMOGLOBIN [3]: 24.3 pg
- MEAN CORPUSCULAR HEMOGLOBIN CONCENTRATION [3]: 37.3 G/DL
- MEAN CORPUSCULAR VOLUME [3]: 65.25 fL
- MONOCYTE [3]: 3.5%
- NEUTROPHIL [3]: 11%
- PLATELET COUNT [3]: 1530 x10E3/uL
- ALANINE AMINOTRANSFERASE [3]: 31.5 u/L
- ALBUMIN [3]: 3.75 G/DL
- ALKALINE PHOSPHATASE [3]: 379 u/L
- ASPARTATE AMINOTRANSFERASE [3]: 59 u/L
- BLOOD UREA NITROGEN [3]: 16.5 mg/dL
- CHLORIDE [3]: 102.5 MEQ/L
- CHOLESTEROL [3]: 77.5 mg/dL
- CREATINE PHOSPHOKINASE [3]: 142.5 u/L
- CREATININE [3]: 0.4 mg/dL
- GLUCOSE [3]: 174 mg/dL
- PHOSPHORUS [3]: 13.7 mg/dL
- POTASSIUM [3]: 6.85 MEQ/L
- SODIUM [3]: 152 MEQ/L
- TOTAL PROTEIN [3]: 6.2 G/DL
- BASOPHIL [4]: 0%
- EOSINOPHIL [4]: 0.33%
- ERYTHROCYTE COUNT [4]: 6.32 x10E6/uL
- HEMATOCRIT [4]: 40.2%
- HEMOGLOBIN [4]: 15.2 G/DL
- LEUKOCYTE COUNT [4]: 12.73 x10E3/uL
- LYMPHOCYTE [4]: 86.33%
- MEAN CORPUSCULAR HEMOGLOBIN [4]: 24.07 pg
- MEAN CORPUSCULAR HEMOGLOBIN CONCENTRATION [4]: 37.83 G/DL
- MEAN CORPUSCULAR VOLUME [4]: 63.7 fL
- MONOCYTE [4]: 2.33%
- NEUTROPHIL [4]: 11%
- PLATELET COUNT [4]: 1319.67 x10E3/uL
- ALANINE AMINOTRANSFERASE [4]: 36.67 u/L
- ALBUMIN [4]: 3.43 G/DL
- ALKALINE PHOSPHATASE [4]: 437.33 u/L
- ASPARTATE AMINOTRANSFERASE [4]: 64 u/L
- BLOOD UREA NITROGEN [4]: 13.67 mg/dL
- CHLORIDE [4]: 103 MEQ/L
- CHOLESTEROL [4]: 65 mg/dL
- CREATINE PHOSPHOKINASE [4]: 156.67 u/L
- CREATININE [4]: 0.53 mg/dL
- GLUCOSE [4]: 162.67 mg/dL
- PHOSPHORUS [4]: 11.97 mg/dL
- POTASSIUM [4]: 7.07 MEQ/L
- SODIUM [4]: 148.33 MEQ/L
- TOTAL PROTEIN [4]: 5.63 G/DL
- BASOPHIL [5]: 0%
- EOSINOPHIL [5]: 0.67%
- ERYTHROCYTE COUNT [5]: 6.72 x10E6/uL
- HEMATOCRIT [5]: 42.6%
- HEMOGLOBIN [5]: 15.63 G/DL
- LEUKOCYTE COUNT [5]: 11.5 x10E3/uL
- LYMPHOCYTE [5]: 77.67%
- MEAN CORPUSCULAR HEMOGLOBIN [5]: 23.3 pg
- MEAN CORPUSCULAR HEMOGLOBIN CONCENTRATION [5]: 36.73 G/DL
- MEAN CORPUSCULAR VOLUME [5]: 63.4 fL
- MONOCYTE [5]: 1.67%
- NEUTROPHIL [5]: 20%
- PLATELET COUNT [5]: 1318.33 x10E3/uL
- ALANINE AMINOTRANSFERASE [5]: 31.33 u/L
- ALBUMIN [5]: 3.67 G/DL
- ALKALINE PHOSPHATASE [5]: 301.33 u/L
- ASPARTATE AMINOTRANSFERASE [5]: 56.33 u/L
- BLOOD UREA NITROGEN [5]: 18.33 mg/dL
- CHLORIDE [5]: 104.67 MEQ/L
- CHOLESTEROL [5]: 84.67 mg/dL
- CREATINE PHOSPHOKINASE [5]: 181.33 u/L
- CREATININE [5]: 0.47 mg/dL
- GLUCOSE [5]: 193.67 mg/dL
- PHOSPHORUS [5]: 14.03 mg/dL
- POTASSIUM [5]: 6.9 MEQ/L
- SODIUM [5]: 150.67 MEQ/L
- TOTAL PROTEIN [5]: 6.03 G/DL
- BASOPHIL [6]: 0%
- EOSINOPHIL [6]: 0%
- ERYTHROCYTE COUNT [6]: 6.6 x10E6/uL
- HEMATOCRIT [6]: 41.4%
- HEMOGLOBIN [6]: 15.03 G/DL
- LEUKOCYTE COUNT [6]: 16.7 x10E3/uL
- LYMPHOCYTE [6]: 84.33%
- MEAN CORPUSCULAR HEMOGLOBIN [6]: 22.83 pg
- MEAN CORPUSCULAR HEMOGLOBIN CONCENTRATION [6]: 36.4 G/DL
- MEAN CORPUSCULAR VOLUME [6]: 62.8 fL
- MONOCYTE [6]: 0.67%
- NEUTROPHIL [6]: 15%
- PLATELET COUNT [6]: 1151 x10E3/uL
- ALANINE AMINOTRANSFERASE [6]: 37.33 u/L
- ALBUMIN [6]: 3.4 G/DL
- ALKALINE PHOSPHATASE [6]: 386 u/L
- ASPARTATE AMINOTRANSFERASE [6]: 55.33 u/L
- BLOOD UREA NITROGEN [6]: 15.33 mg/dL
- CHLORIDE [6]: 101.67 MEQ/L
- CHOLESTEROL [6]: 67 mg/dL
- CREATINE PHOSPHOKINASE [6]: 159.67 u/L
- CREATININE [6]: 0.5 mg/dL
- GLUCOSE [6]: 174.67 mg/dL
- PHOSPHORUS [6]: 14.17 mg/dL
- POTASSIUM [6]: 7.1 MEQ/L
- SODIUM [6]: 149 MEQ/L
- TOTAL PROTEIN [6]: 5.7 G/DL
